5 compounds from ChEMBL document CHEMBL4190322, “Structure-based development of novel triazoles and related thiazolotriazoles as anticancer agents and Cdc25A/B phosphatase inhibitors. Synthesis, in vitro biological evaluation, molecular docking and in silico ADME-T studies” (Eur J Med Chem, 2017) can be followed below.

Series [1] can be described thus: Cytotoxicity against human MCF10A cells after 24 hrs by MTT assay. Type of series: cell-based, MCF-10A. Conditions: read-out: LC50. (Formazan colour is commonly taken as a measure of viable cells.)
In series [2] the test system is UACC-257. In words: Growth inhibition of human UACC257 cells at 10 uM after 48 hrs by SRB assay relative to control. Type of series: functional. In general terms: In SRB staining, fixed cells bind dye roughly in proportion to their protein.
Series [3] deals with PC-3. In words: Growth inhibition of human PC3 cells at 10 uM after 48 hrs by SRB assay relative to control. Type of series: functional. The following applies: PC-3, 48 h, read-out: GI.
The subject of series [4] is KM12. In words: Growth inhibition of human KM12 cells at 10 uM after 48 hrs by SRB assay relative to control. The format is functional. Conditions: KM12, 48 h, read-out: GI.
The subject of series [5] is NCI/ADR-RES. The experiment in a line: Growth inhibition of human NCI/ADR-RES cells at 10 uM after 48 hrs by SRB assay relative to control. Conditions: read-out: GI. Type of series: functional.
Series [6] has as its system SK-OV-3. The experiment in a line: Growth inhibition of human SKOV3 cells at 10 uM after 48 hrs by SRB assay relative to control. The format is functional. The following applies: SK-OV-3, 48 h, read-out: GI.
Series [7] concerns the target T1, M-phase inducer phosphatase 1 (Homo sapiens, UniProt P30304).
T1 sequence (P30304 whole entry): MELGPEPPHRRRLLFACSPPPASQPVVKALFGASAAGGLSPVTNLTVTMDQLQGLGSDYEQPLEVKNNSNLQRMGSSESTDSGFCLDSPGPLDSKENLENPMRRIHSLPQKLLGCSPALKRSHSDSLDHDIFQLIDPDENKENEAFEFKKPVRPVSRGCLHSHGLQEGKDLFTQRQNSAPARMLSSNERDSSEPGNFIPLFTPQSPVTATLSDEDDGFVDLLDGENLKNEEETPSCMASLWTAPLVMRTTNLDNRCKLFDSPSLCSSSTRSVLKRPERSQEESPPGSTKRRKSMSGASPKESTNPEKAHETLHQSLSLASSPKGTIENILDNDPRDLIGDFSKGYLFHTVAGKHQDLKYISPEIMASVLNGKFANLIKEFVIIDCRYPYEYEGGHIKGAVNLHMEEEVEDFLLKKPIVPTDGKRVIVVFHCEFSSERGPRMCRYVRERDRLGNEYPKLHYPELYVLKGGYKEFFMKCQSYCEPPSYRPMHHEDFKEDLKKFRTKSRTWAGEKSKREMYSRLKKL
In words: Inhibition of human CDC25A using OMFP as substrate after 15 mins by fluorescence assay.

For series [8], the system named is MCF7. The experiment in a line: Growth inhibition of human MCF7 cells at 10 uM after 48 hrs by SRB assay relative to control. Conditions: MCF7, 48 h, read-out: GI. The format is functional.
The test system of series [9] is UACC-62. In words: Growth inhibition of human UACC62 cells at 10 uM after 48 hrs by SRB assay relative to control. The format is functional. Conditions: UACC-62, 48 h, read-out: GI.
Series [10] deals with K562. In words: Growth inhibition of human K562 cells at 10 uM after 48 hrs by SRB assay relative to control. Type of series: functional. The following applies: K562, 48 h, read-out: GI.
Series [11] deals with LOX IMVI. The experiment in a line: Growth inhibition of human LOXIMVI cells at 10 uM after 48 hrs by SRB assay relative to control. The format is functional. The following applies: read-out: GI.

SMILES strings stand for the structures. Active and inactive are the calls of the source. The rule behind the calls is not given here. Bounds are passed on as bounds.

As a reminder, the IC50 is the point on the concentration scale where inhibition reaches its midpoint. A higher IC50 goes with a need for much substance. As for `COc1ccc(Cc2nnc(SCC(=O)Nc3ccc(Cl)cc3)n2-c2ccccc2)cc1`, the CC50 at 24 h in [1] is > 100 µM. The “growth inhibition (GI)” value in series [2] was “inactive”. In addition, the inhibition of growth at 10 µM in series [3] was 45.2%; in series [4], 14.5%; in [5] it was 11.4%; in series [6] it was 14.1%; in [8], 4.1%; in series [9], 18.8%. The results for the inhibition of growth at 10 µM in [10] and in series [11] were 25% and 11.9%, respectively. Half-maximal inhibition in series [7] (IC50) was put at 32.9 µM.
Take `COc1ccc(Cc2nnc(SCC(=O)Nc3ccc(Cl)cc3)n2Cc2ccccc2)cc1`: the CC50 at 24 h in [1] was > 100 µM. Moreover, the “growth inhibition (GI)” value in series [2] was “inactive”. Further, the inhibition of growth at 10 µM worked out at 47.3% in [3]; 16.7% in series [4]; 14.3% in series [5]; 16.2% in series [6]; 11.1% in series [8]; 38% in series [9]. The inhibition of growth at 10 µM was 34.5% in series [10] and 12.2% in series [11]. In [7], half-maximal inhibition (IC50) was put at 14.1 µM.
Regarding `COc1ccc(Cc2nnc(SCC(=O)c3ccc(Cl)cc3)n2Cc2ccccc2)cc1`, in [1], the CC50 at 24 h was > 100 µM. The inhibition of growth at 10 µM in series [2] (UACC-257, 48 h, read-out: GI) is 6.9%; in series [3] it was 51.8%; in [4] it was 10%; in series [5] it was 21.5%; in series [6], 17%; in series [8] it was 10%. The results for the inhibition of growth at 10 µM in series [9], in series [10] and in series [11] were 14.8%, 29.2% and 6.87%, respectively. In [7], this compound had an IC50 of 11.4 µM.
Take `COc1ccc(Cc2nnc(SCC(=O)c3ccc(Cl)cc3)n2-c2ccc(C)cc2)cc1`: the CC50 at 24 h in series [1] was > 100 µM. In addition, the “growth inhibition (GI)” value in series [2] is “inactive”. Besides, the inhibition of growth at 10 µM was 26% in [3]; 7.12% in series [4]; 12% in series [5]; 1.07% in series [6]; 8.76% in [8]; 5.42% in series [9]. In addition, the inhibition of growth at 10 µM in series [10] was 53.5%; in [11], 1.19%. Further, inhibition in series [7] was half-maximal at 20.5 µM (IC50).
Take `COc1ccc(Cc2nnc(SCC(=O)c3ccc(Cl)cc3)n2-c2ccccc2)cc1`: in series [1], the CC50 at 24 h is > 100 µM. Further, the “growth inhibition (GI)” value in series [2] is “inactive”. For the same compound, the inhibition of growth at 10 µM in series [3] turned out to be 36.2%; in series [4] it was 5.87%; in series [5], 10.3%; in [6] it was 7.83%; in [8], 6.26%; in series [9], 13.7%. In addition, the inhibition of growth at 10 µM in series [10] came to 26.7%; in series [11], 3.4%. The compound also gave a concentration for half-maximal inhibition (IC50) in series [7] of 30.7 µM.
